What was measured:
Assay in all cases: relative viability (nuclei count vs DMSO), 5 days (fraction); higher = more cells survive
SW 900 = tested on: SW 900
Procedure, shortened: (§1)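 Relative viability was taken as the ratio of nuclei in treated wells to nuclei in vehicle wells. Lung cancer cell lines in 1536-well plates received compounds by pin tool one day after seeding, either one drug alone or a fixed anchor-drug dose plus five library-drug doses (not always all listed) in √10 steps. Nuclei were counted on 4× images after 5 days of treatment, and values are medians of duplicate plates.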

HCC-44 = tested on: HCC-44
Procedure, shortened: as §1

NCI-H596 = tested on: NCI-H596
Procedure, shortened: as §1

A-427 = tested on: A-427
Procedure, shortened: as §1

NCI-H2347 = tested on: NCI-H2347
Procedure, shortened: as §1

LCLC-97TM1 = tested on: LCLC-97TM1
Procedure, shortened: as §1

LCLC-103H = tested on: LCLC-103H
Procedure, shortened: as §1

LC-2-ad = tested on: LC-2-ad
Procedure, shortened: as §1

LU99A = tested on: LU99A
Procedure, shortened: as §1

201T = tested on: 201T
Procedure, shortened: as §1

H3255 = tested on: H3255
Procedure, shortened: as §1

PC-14 = tested on: PC-14
Procedure, shortened: as §1

NCI-H727 = tested on: NCI-H727
Procedure, shortened: as §1

COR-L23 = tested on: COR-L23
Procedure, shortened: as §1

LK-2 = tested on: LK-2
Procedure, shortened: as §1

NCI-H23 = tested on: NCI-H23
Procedure, shortened: as §1

NCI-H2228 = tested on: NCI-H2228
Procedure, shortened: as §1

NCI-H1793 = tested on: NCI-H1793
Procedure, shortened: as §1

SW 1573 = tested on: SW 1573
Procedure, shortened: as §1

NCI-H1650 = tested on: NCI-H1650
Procedure, shortened: as §1

NCI-H460 = tested on: NCI-H460
Procedure, shortened: as §1

PC-3 [JPC-3] = tested on: PC-3 [JPC-3]
Procedure, shortened: as §1

COc1nc(C)cnc1NS(=O)(=O)c1cccnc1-c1ccc(-c2nnco2)cc1 [Zibotentan] + Cc1cc(Nc2cc(N3CCN(C)CC3)nc(Sc3ccc(NC(=O)C4CC4)cc3)n2)n[nH]1 [Tozasertib] (partner 0.1 µM)
relative viability (SW 900; first compound 0.08 µM): 0.553 | relative viability (SW 900; first compound 0.253 µM): 0.549 | relative viability (SW 900; first compound 0.8 µM): 0.617 | relative viability (SW 900; first compound 2.53 µM): 0.586 | relative viability (HCC-44; first compound 0.08 µM): 1.33 | relative viability (HCC-44; first compound 0.8 µM): 0.852 | relative viability (HCC-44; first compound 2.53 µM): 0.862 | relative viability (NCI-H596; first compound 0.08 µM): 0.883 | relative viability (NCI-H596; first compound 0.253 µM): 0.846 | relative viability (NCI-H596; first compound 0.8 µM): 0.684 | relative viability (NCI-H596; first compound 2.53 µM): 1.07 | relative viability (A-427; first compound 0.08 µM): 0.232 | relative viability (A-427; first compound 0.253 µM): 0.205 | relative viability (A-427; first compound 0.8 µM): 0.25 | relative viability (A-427; first compound 2.53 µM): 0.258 | relative viability (NCI-H2347; first compound 0.253 µM): 0.49 | relative viability (NCI-H2347; first compound 0.8 µM): 0.432 | relative viability (NCI-H2347; first compound 2.53 µM): 0.537 | relative viability (LCLC-97TM1; first compound 0.08 µM): 0.228 | relative viability (LCLC-97TM1; first compound 0.253 µM): 0.237 | relative viability (LCLC-97TM1; first compound 0.8 µM): 0.21 | relative viability (LCLC-97TM1; first compound 2.53 µM): 0.233 | relative viability (LCLC-103H; first compound 0.08 µM): 0.451 | relative viability (LCLC-103H; first compound 0.253 µM): 0.509 | relative viability (LCLC-103H; first compound 0.8 µM): 0.412 | relative viability (LCLC-103H; first compound 2.53 µM): 0.478 | relative viability (LC-2-ad; first compound 0.08 µM): 0.436 | relative viability (LC-2-ad; first compound 0.8 µM): 0.574 | relative viability (LC-2-ad; first compound 2.53 µM): 0.452 | relative viability (LU99A; first compound 0.08 µM): 0.319 | relative viability (LU99A; first compound 0.253 µM): 0.25 | relative viability (LU99A; first compound 0.8 µM): 0.302 | relative viability (LU99A; first compound 2.53 µM): 0.301 | relative viability (201T; first compound 0.08 µM): 1.07 | relative viability (201T; first compound 0.253 µM): 0.881 | relative viability (201T; first compound 0.8 µM): 0.955 | relative viability (201T; first compound 2.53 µM): 1.04 | relative viability (H3255; first compound 0.08 µM): 0.693 | relative viability (H3255; first compound 0.253 µM): 0.604 | relative viability (H3255; first compound 0.8 µM): 0.742 | relative viability (H3255; first compound 2.53 µM): 0.888 | relative viability (PC-14; first compound 0.08 µM): 0.555 | relative viability (PC-14; first compound 0.253 µM): 0.527 | relative viability (PC-14; first compound 0.8 µM): 0.583 | relative viability (PC-14; first compound 2.53 µM): 0.567 | relative viability (NCI-H727; first compound 0.08 µM): 0.692 | relative viability (NCI-H727; first compound 0.253 µM): 0.624 | relative viability (NCI-H727; first compound 0.8 µM): 0.629 | relative viability (NCI-H727; first compound 2.53 µM): 0.648 | relative viability (COR-L23; first compound 0.08 µM): 0.218 | relative viability (COR-L23; first compound 0.253 µM): 0.216 | relative viability (COR-L23; first compound 0.8 µM): 0.224 | relative viability (COR-L23; first compound 2.53 µM): 0.337 | relative viability (LK-2; first compound 0.08 µM): 0.148 | relative viability (LK-2; first compound 0.253 µM): 0.191 | relative viability (LK-2; first compound 0.8 µM): 0.166 | relative viability (LK-2; first compound 2.53 µM): 0.198 | relative viability (NCI-H23; first compound 0.08 µM): 0.284 | relative viability (NCI-H23; first compound 0.253 µM): 0.331 | relative viability (NCI-H23; first compound 0.8 µM): 0.314 | relative viability (NCI-H23; first compound 2.53 µM): 0.413 | relative viability (NCI-H2228; first compound 0.08 µM): 0.266 | relative viability (NCI-H2228; first compound 0.253 µM): 0.239 | relative viability (NCI-H2228; first compound 0.8 µM): 0.212 | relative viability (NCI-H2228; first compound 2.53 µM): 0.258 | relative viability (NCI-H1793; first compound 0.08 µM): 0.336 | relative viability (NCI-H1793; first compound 0.253 µM): 0.352 | relative viability (NCI-H1793; first compound 0.8 µM): 0.273 | relative viability (NCI-H1793; first compound 2.53 µM): 0.3 | relative viability (SW 1573; first compound 0.08 µM): 0.229 | relative viability (SW 1573; first compound 0.8 µM): 0.257 | relative viability (SW 1573; first compound 2.53 µM): 0.221 | relative viability (NCI-H1650; first compound 0.08 µM): 0.491 | relative viability (NCI-H1650; first compound 0.8 µM): 0.487 | relative viability (NCI-H1650; first compound 2.53 µM): 0.418 | relative viability (NCI-H460; first compound 0.08 µM): 0.625 | relative viability (NCI-H460; first compound 0.253 µM): 0.158 | relative viability (NCI-H460; first compound 0.8 µM): 0.106 | relative viability (NCI-H460; first compound 2.53 µM): 0.385 | relative viability (PC-3 [JPC-3]; first compound 0.08 µM): 0.869 | relative viability (PC-3 [JPC-3]; first compound 0.253 µM): 0.903 | relative viability (PC-3 [JPC-3]; first compound 0.8 µM): 0.853 | relative viability (PC-3 [JPC-3]; first compound 2.53 µM): 0.878

Reference: the supplement of paper PMC10307832
